Experiments:
Experiment in all cases: Cell viability drug screen, 12-point dose-response AUC
Assay type in all cases: cell-based, human
AGS = conditions: 72 hours; for area under the viability curve (AUC), normalized: AGS cells, 12-point dose-response
How it was run: (§1)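 Luminescent viability readings, taken 15 min after reagent addition at room temperature, were normalized to the 0.5% DMSO control to build 12-point dose-response curves. Trapezoidal integration gave the AUC. Cells had been plated at 5×10^3 per well and then exposed to half-log dilutions for 72 h.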

Hs746T = conditions: 72 hours; for area under the viability curve (AUC), normalized: Hs746T cells, 12-point dose-response
How it was run: (§2)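 Each cell line receives a twelve-point half-log titration of drug beginning 24 h after plating 5×10^3 cells per well. Following 72 h culture at 37 °C, luminescent signal is recorded and expressed versus vehicle. AUC is derived by the trapezoidal method.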

KATO3 = KATO3 cells, 72 hours; for area under the viability curve (AUC), normalized: 12-point dose-response
How it was run: as §2

MKN1 = MKN1 cells, 72 hours; for area under the viability curve (AUC), normalized: 12-point dose-response
How it was run: as §2

MKN28 = MKN28 cells, 72 hours; for area under the viability curve (AUC), normalized: 12-point dose-response
How it was run: as §2

MKN45 = conditions: 72 hours; for area under the viability curve (AUC), normalized: MKN45 cells, 12-point dose-response
How it was run: as §1

MKN74 = MKN74 cells, 72 hours; for area under the viability curve (AUC), normalized: 12-point dose-response
How it was run: as §1

NCC19 = NCC19 cells, 72 hours; for area under the viability curve (AUC), normalized: 12-point dose-response
How it was run: as §2

NCC20 = NCC20 cells, 72 hours; for area under the viability curve (AUC), normalized: 12-point dose-response
How it was run: as §2

NCC24 = NCC24 cells, 72 hours; for area under the viability curve (AUC), normalized: 12-point dose-response
How it was run: as §2

NCC59 = NCC59 cells, 72 hours; for area under the viability curve (AUC), normalized: 12-point dose-response
How it was run: as §2

NCI_N87 = NCI_N87 cells, 72 hours; for area under the viability curve (AUC), normalized: 12-point dose-response
How it was run: as §2

OCUM1 = OCUM1 cells, 72 hours; for area under the viability curve (AUC), normalized: 12-point dose-response
How it was run: as §2

SK4 = conditions: 72 hours; for area under the viability curve (AUC), normalized: SK4 cells, 12-point dose-response
How it was run: as §2

SNU16 = SNU16 cells, 72 hours; for area under the viability curve (AUC), normalized: 12-point dose-response
How it was run: as §2

SNU1750 = conditions: 72 hours; for area under the viability curve (AUC), normalized: SNU1750 cells, 12-point dose-response
How it was run: as §2

SNU1967 = SNU1967 cells, 72 hours; for area under the viability curve (AUC), normalized: 12-point dose-response
How it was run: as §2

SNU1 = SNU1 cells, 72 hours; for area under the viability curve (AUC), normalized: 12-point dose-response
How it was run: as §2

SNU216 = conditions: 72 hours; for area under the viability curve (AUC), normalized: SNU216 cells, 12-point dose-response
How it was run: as §1

SNU484 = conditions: 72 hours; for area under the viability curve (AUC), normalized: SNU484 cells, 12-point dose-response
How it was run: as §2

SNU601 = SNU601 cells, 72 hours; for area under the viability curve (AUC), normalized: 12-point dose-response
How it was run: as §2

SNU620 = SNU620 cells, 72 hours; for area under the viability curve (AUC), normalized: 12-point dose-response
How it was run: as §2

SNU638 = SNU638 cells, 72 hours; for area under the viability curve (AUC), normalized: 12-point dose-response
How it was run: as §2

SNU668 = conditions: 72 hours; for area under the viability curve (AUC), normalized: SNU668 cells, 12-point dose-response
How it was run: as §2

SNU719 = SNU719 cells, 72 hours; for area under the viability curve (AUC), normalized: 12-point dose-response
How it was run: as §1

YCC11 = conditions: 72 hours; for area under the viability curve (AUC), normalized: YCC11 cells, 12-point dose-response
How it was run: as §2

YCC2 = YCC2 cells, 72 hours; for area under the viability curve (AUC), normalized: 12-point dose-response
How it was run: as §2

YCC3 = YCC3 cells, 72 hours; for area under the viability curve (AUC), normalized: 12-point dose-response
How it was run: as §2

FU97 = test system: FU97; set-up: Average Area Under the Viability Curve (AUC), AUC norm value: scale not given here; conditions: FU97 cells, 72 hours; for area under the viability curve (AUC), normalized: 12-point dose-response
How it was run: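 Trapezoidal AUC of a 12-point, DMSO-normalized dose-response curve. Luminescent viability was measured after 72 h of exposure at 37° C to half-log serial dilutions (0.5% DMSO control), dosed 24 h after plating FU97 cells at 5×10^3 per well.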

CC(/C=C/C(=O)NO)=C\[C@@H](C)C(=O)c1ccc(N(C)C)cc1 [Trichostatin A (TSA), Trichostatin A]
area under the viability curve (AUC), normalized (AGS): −1.137
area under the viability curve (AUC), normalized (Hs746T): 0.6621
area under the viability curve (AUC), normalized (KATO3): −0.1555
area under the viability curve (AUC), normalized (MKN1): 0.4223
area under the viability curve (AUC), normalized (MKN28): −0.6515
area under the viability curve (AUC), normalized (MKN45): 2.215
area under the viability curve (AUC), normalized (MKN74): 0.3005
area under the viability curve (AUC), normalized (NCC19): −0.3026
area under the viability curve (AUC), normalized (NCC20): −1.842
area under the viability curve (AUC), normalized (NCC24): −1.307
area under the viability curve (AUC), normalized (NCC59): 1.784
area under the viability curve (AUC), normalized (NCI_N87): −0.01232
area under the viability curve (AUC), normalized (OCUM1): 0.1474
area under the viability curve (AUC), normalized (SK4): 0.7897
area under the viability curve (AUC), normalized (SNU16): 1.141
area under the viability curve (AUC), normalized (SNU1750): −1.0771
area under the viability curve (AUC), normalized (SNU1967): −1.472
area under the viability curve (AUC), normalized (SNU1): −0.9946
area under the viability curve (AUC), normalized (SNU216): 0
area under the viability curve (AUC), normalized (SNU484): 0.4515
area under the viability curve (AUC), normalized (SNU601): 1.155
area under the viability curve (AUC), normalized (SNU620): −1.343
area under the viability curve (AUC), normalized (SNU638): −0.2758
area under the viability curve (AUC), normalized (SNU668): 0.1344
area under the viability curve (AUC), normalized (SNU719): 1.883
area under the viability curve (AUC), normalized (YCC11): −0.2695
area under the viability curve (AUC), normalized (YCC2): 0.2017
area under the viability curve (AUC), normalized (YCC3): 1.17
area under the viability curve (AUC), normalized (FU97): −1.181

CC(C)[C@]12O[C@H]1[C@@H]1O[C@]13[C@]1(O[C@H]1C[C@H]1C4=C(CC[C@@]13C)C(=O)OC4)[C@@H]2O [Triptolide]
area under the viability curve (AUC), normalized (AGS): −1.267
area under the viability curve (AUC), normalized (Hs746T): 0.17
area under the viability curve (AUC), normalized (KATO3): 5.715
area under the viability curve (AUC), normalized (MKN1): 0.6772
area under the viability curve (AUC), normalized (MKN28): −0.03132
area under the viability curve (AUC), normalized (MKN45): 1.157
area under the viability curve (AUC), normalized (MKN74): −0.8231
area under the viability curve (AUC), normalized (NCC19): −1.507
area under the viability curve (AUC), normalized (NCC20): 0
area under the viability curve (AUC), normalized (NCC24): −1.656
area under the viability curve (AUC), normalized (NCC59): 0.356
area under the viability curve (AUC), normalized (NCI_N87): −0.7868
area under the viability curve (AUC), normalized (OCUM1): 1.992
area under the viability curve (AUC), normalized (SK4): −1.232
area under the viability curve (AUC), normalized (SNU16): 1.9544
area under the viability curve (AUC), normalized (SNU1750): −0.4213
area under the viability curve (AUC), normalized (SNU1967): −0.4902
area under the viability curve (AUC), normalized (SNU1): −0.1207
area under the viability curve (AUC), normalized (SNU216): 1.18
area under the viability curve (AUC), normalized (SNU484): −1.234
area under the viability curve (AUC), normalized (SNU601): 0.3854
area under the viability curve (AUC), normalized (SNU620): −0.986
area under the viability curve (AUC), normalized (SNU638): 0.828
area under the viability curve (AUC), normalized (SNU668): −1.284
area under the viability curve (AUC), normalized (SNU719): 4.573
area under the viability curve (AUC), normalized (YCC11): 0.4144
area under the viability curve (AUC), normalized (YCC2): 0.6309
area under the viability curve (AUC), normalized (YCC3): 2.62
area under the viability curve (AUC), normalized (FU97): −0.6238

CC[C@]1(O)C[C@@H]2CN(CCc3c([nH]c4ccccc34)[C@@](C(=O)OC)(c3cc4c(cc3OC)N(C)[C@H]3[C@@](O)(C(=O)OC)[C@H](OC(C)=O)[C@]5(CC)C=CCN6CC[C@]43[C@@H]65)C2)C1 [Vinblastine]
Average Area Under the Viability Curve (AUC), AUC norm value (AGS; AGS cells (non-SEM subtype)): −1.129
Average Area Under the Viability Curve (AUC), AUC norm value (Hs746T; Hs746T cells (SEM subtype)): 1.1779
Average Area Under the Viability Curve (AUC), AUC norm value (KATO3): 4.096
Average Area Under the Viability Curve (AUC), AUC norm value (MKN1): −0.9285
Average Area Under the Viability Curve (AUC), AUC norm value (MKN28): −0.818
Average Area Under the Viability Curve (AUC), AUC norm value (MKN45; MKN45 cells (non-SEM subtype)): 1.844
Average Area Under the Viability Curve (AUC), AUC norm value (MKN74): 0.6639
Average Area Under the Viability Curve (AUC), AUC norm value (NCC19): 2.905
Average Area Under the Viability Curve (AUC), AUC norm value (NCC20): −1.614
Average Area Under the Viability Curve (AUC), AUC norm value (NCC24): −0.9438
Average Area Under the Viability Curve (AUC), AUC norm value (NCC59): 2.833
Average Area Under the Viability Curve (AUC), AUC norm value (NCI_N87): −0.1721
Average Area Under the Viability Curve (AUC), AUC norm value (OCUM1): 2.514
Average Area Under the Viability Curve (AUC), AUC norm value (SK4; SK4 cells (SEM subtype)): −1.0813
Average Area Under the Viability Curve (AUC), AUC norm value (SNU16): −1.3
Average Area Under the Viability Curve (AUC), AUC norm value (SNU1750; SNU1750 cells (SEM subtype)): 0.6497
Average Area Under the Viability Curve (AUC), AUC norm value (SNU1967): −0.9411
Average Area Under the Viability Curve (AUC), AUC norm value (SNU1): −0.3949
Average Area Under the Viability Curve (AUC), AUC norm value (SNU216; SNU216 cells (non-SEM subtype)): 2.539
Average Area Under the Viability Curve (AUC), AUC norm value (SNU484; SNU484 cells (SEM subtype)): −1.194
Average Area Under the Viability Curve (AUC), AUC norm value (SNU601): 0
Average Area Under the Viability Curve (AUC), AUC norm value (SNU620): −0.4909
Average Area Under the Viability Curve (AUC), AUC norm value (SNU638): 0.2652
Average Area Under the Viability Curve (AUC), AUC norm value (SNU668; SNU668 cells (SEM subtype)): −1.037
Average Area Under the Viability Curve (AUC), AUC norm value (SNU719): 4.162
Average Area Under the Viability Curve (AUC), AUC norm value (YCC11; YCC11 cells (SEM subtype)): −0.6159
Average Area Under the Viability Curve (AUC), AUC norm value (YCC2): 2.06
Average Area Under the Viability Curve (AUC), AUC norm value (YCC3): 4.54
Average Area Under the Viability Curve (AUC), AUC norm value (FU97): 0.3772
